The subject of one assay is SP cells in bone marrow. The experiment in a line: Side Population (SP) cells in bone marrow after 5-FU. It is filed as in vivo, mice. The note with it: different times after 5-FU; FIG. 13. The protocol: At different times after 5-FU, bone marrow was harvested, nucleated cells counted and incubated in Hoechst dye for subsequent analysis on efficient (lower gate) and poor (higher gate) dye effluxing cells in the SP tail. While the percent of SP cells appeared to increase from day 1 to day 4, the cell yield continued to decrease and thus the actual number of SP cells per hind limb remained low.
(§1) Mice: C57BL/6J male mice (with Ly 5.2 marker) obtained from Jackson Laboratories were used for most of the experiments proposed. Mice were maintained in a specific pathogen-free microisolator environment. […] The cellularity of bone marrow and thymus was measured by counting total live cells (using trypan blue) and total WBCs (using crystal violet in 3% acetic acid) on a hemocytometer. […] Briefly, C57BL/6J mice were injected i.v. via the retro-orbital sinus under isoflurane anesthesia with two doses (0.8 mg/mouse) of Hoechst dye (Sigma) at 10 and 5 min before bone marrow harvesting, a period determined to be insufficient for active dye exclusion in vitro. […] The dual emission wavelength of Hoechst fluorescence in bone marrow and thymus was assessed on a logarithmic scale using flow cytometry with exclusion of propidium iodide positive cells. […] The fluorescent intensity for staining was measured using flow cytometry. […]

The subject of assay [1] is Cobblestone Area Forming Cell (CAFC) subsets in bone marrow. In words: Cobblestone Area Forming Cell (CAFC) content of bone marrow after in vivo treatment. Further details: species or system mice. The protocol:
FIG. 8 is a depiction of CAFC content per hind limb expressed as percent of untreated (saline injected) control following 4×30 mg/kg tirapazamine (TPZ) 2×10 mg/kg Busulfex (BX) or 4 Gy gamma-irradiation. Data represents the mean of bone marrow cell samples pooled from 3-4 individual mice with 95% confidence limits.
5-FU was administered i.p. to B6 recipients at a single dose of 150 mg/kg. At 2 days, the femoral and tibial bone marrow was harvested, pooled from mice and plated for estimate of CAFC content per hind limb. Error bars represent 95% confidence intervals.
Mice: C57BL/6J male mice (with Ly 5.2 marker) obtained from Jackson Laboratories were used for most of the experiments proposed. Mice were maintained in a specific pathogen-free microisolator environment. For some in vivo repopulation assays, B6.5JL-Ptprc^a Pep3^b/BoyJ congenic mice (with Ly5.1 marker) obtained from Jackson Laboratories were used as donors. Bone marrow, thymus, harvest: Bone marrow cells were harvested from mice by crushing the tibias and femurs from the hind limbs in HBSS containing 2% FBS and […] HEPES buffer (HBSS+). Bone marrow cells, thymocytes and splenocytes were passed through 21 gauge needles to get single cell suspensions. The cellularity of bone marrow and thymus was measured by counting total live cells (using trypan blue) and total WBCs (using crystal violet in 3% acetic acid) on a hemocytometer. Measurement of Hoechst perfusion in vivo in mice: The Hoechst dye perfusion in mice was done according to methods previously described in the literature (Durand et al., 1990; Olive et al., 2000; Olive et al., 2002). Briefly, C57BL/6J mice were injected i.v. via the retro-orbital sinus under isoflurane anesthesia with two doses (0.8 mg/mouse) of Hoechst dye (Sigma) at 10 and 5 min before bone marrow harvesting, a period determined to be insufficient for active dye exclusion in vitro. Tibias and femurs were placed immediately on ice, crushed in a pre-cooled mortar and pestle, filtered and suspended in cold HBSS+. Thymus was harvested and thymocyte cell suspension made by passing the cells through 21 gauge needle. The dual emission wavelength of Hoechst fluorescence in bone marrow and thymus was assessed on a logarithmic scale using flow cytometry with exclusion of propidium iodide positive cells. Pimonidazole binding: The detection of hypoxic cells in bone marrow and thymus was done by pimonidazole binding using methods described by Olive et al. (Olive et al., 2000; Olive et al., 2002). Briefly, the mice were injected i.p. with pimonudazole hydrochloride (Chemicon International) at 120 mg/kg dose and the bone marrow as well as thymus were harvested 3 hrs post-injection. […] The fluorescent intensity for staining was measured using flow cytometry. […]

The subject of a further assay is bone marrow. In words: Hoechst dye perfusion gradient in bone marrow after 5-FU. It is filed as in vivo, mice. The following applies: 1 to 6 days after 5-FU; Hoechst dye i.v. 0.8 mg at 5 and 10 min; FIG. 12. The protocol:
At different times after 5-FU, Hoechst dye was injected i.v. (0.8 mg at 5 and 10 min) and the bone marrow analyzed for intensity of Hoechst uptake. The plotted graph gives the red fluorescence intensity for cells at the lower 1% level to show how the Hoechst gradient is shortened at 1 to 6 days after 5-FU and provides evidence for improved oxygenation of the cells that remain after treatment.
as §1

For a further assay, the system named is HSCs. The following applies: single dose; Harrison and Lerner, 1991; cited from earlier work.

Entries after “also recorded” stand apart in the source; their conditions may differ.

The values below come from patent US20090136521A1, “Method for Selectively Depleting Hypoxic Cells” (Genetix Pharmaceuticals , Inc., priority 2005, published 2009).

Take `O=c1[nH]cc(F)c(=O)[nH]1` [5-FU, 5-fluorouracil]: the “percent and overall marrow content of SP cells” value with SP cells in bone marrow is recorded as “decreased; also recorded: dramatic decrease”. Further, in assay [1] (5-FU single dose 150 mg/kg i.p., bone marrow at 2 days, FIG. 11), the “primitive late-forming CAFCs, bone marrow content” value was “remain normal”. Moreover, the “early-forming CAFC subsets, bone marrow content” value in assay [1] (5-FU single dose 150 mg/kg i.p., bone marrow at 2 days, FIG. 11, 150 mg/kg) was “selectively depletes early-forming CAFCs; also recorded: marked depletion”. The “number of functional HSCs” value in assay [1] (after 5-FU) is reported as “remains unaffected”. For the same compound, in the assay with bone marrow, the “Hoechst gradient in bone marrow (red fluorescence intensity, lower 1% level)” value was “considerably shortened”. Further, the “sensitivity of bone marrow HSCs capable of long-term engraftment in irradiated recipients” value in the assay on HSCs is given as “resistant”.
In the case of `Nc1n[n+]([O-])c2ccccc2[n+]1[O-]` [Tirapazamine, 1,2,4-benzotriazin-3-amine 1,4-dioxide], in assay [1] (TPZ 30 mg/kg i.p. daily over 4 days, bone marrow harvested 24 hours after last treatment, FIG. 8), the “depletion of late- versus early-forming CAFC subsets (CAFC content per hind limb)” value is listed as “higher depletion of late-versus early-forming CAFC subsets”.
